Test results reported in ChEMBL document CHEMBL1155088, “A new sesquiterpene lactone from the roots of Saussurea lappa: structure-anticancer activity study” (Bioorg Med Chem Lett, 2008).
Values after ≈ are worked out from the molar mass of the structure shown. Active and inactive are the calls of the source. No cut-off for these calls is given here.

Legend:
Assay type in all cases: functional, cell-based
COLO 205 = assay: Cytotoxicity against human COLO205 cells after 48 hrs by MTT assay; conditions: for IC50: COLO 205, 48 h
A-431 = assay: Cytotoxicity against human A431 cells after 48 hrs by MTT assay
MCF7 = assay: Cytotoxicity against human MCF7 cells after 48 hrs by MTT assay; conditions: MCF7, 48 h
A549 = assay: Cytotoxicity against human A549 cells after 48 hrs by MTT assay

Row | Structure (SMILES) | IC50 (COLO 205) | Activity (A-431) | IC50 (MCF7) | Activity (A549) | Activity (COLO 205) | IC50 (A-431; A-431, 48 h) | IC50 (A549; A549, 48 h)
1 | C/C1=C\[C@H]2OC(=O)[C@@H](C)[C@@H]2CC/C(C)=C/CC1 [DIHYDRO COSTUNOLIDE] | 134 µg/mL (≈ 572 µM) | inactive | 57.9 µg/mL (≈ 247 µM) | inactive | – | – | –
2 | COC[C@@H]1C(=O)O[C@H]2[C@H]1CC[C@@]1(C)CCCC(=O)[C@H]21 | – | inactive | 103 µg/mL (≈ 388 µM) | inactive | inactive | – | –
3 | C=C1CCC[C@]2(C)CC[C@@H]3[C@H](OC(=O)[C@H]3COC)[C@@H]12 | 110 µg/mL (≈ 415 µM) | inactive | 88.5 µg/mL (≈ 335 µM) | inactive | – | – | –
4 | COC[C@@H]1C(=O)O[C@H]2[C@H]1CC[C@@]1(C)CCCC3(OCOO3)[C@H]21 (some centres undefined) | – | inactive | 180 µg/mL (≈ 577 µM) | inactive | inactive | – | –
5 | COC[C@@H]1C(=O)O[C@@H]2/C=C(\C)CC/C=C(\C)CC[C@@H]12 | 220 µg/mL (≈ 832 µM) | inactive | 75 µg/mL (≈ 284 µM) | inactive | – | – | –
6 | C=C1C(=O)O[C@@H]2/C=C(\C)CCC[C@H](C)CC[C@H]12 [ISODIHYDROCOSTUNOLIDE] | 27 µg/mL (≈ 115 µM) | – | 35 µg/mL (≈ 150 µM) | – | – | 107 µg/mL (≈ 457 µM) | 125 µg/mL (≈ 533 µM)
